The target of data set [1] is T1, HDM2 (human double minute 2) (Homo sapiens, UniProt Q00987).
T1 construct: His-tag; made in house
Nature of the data set: Fluorescence polarisation competition binding assay against FAM-ATSP-3848. The conditions noted are these: for inhibition of FAM-ATSP-3848 binding to HDM2 (in words): fluorescence polarisation, 100 nM HDM2, 10 nM FAM-ATSP-3848. The method, then: Fig. 4 Position–amino acid pattern enrichment analysis of the HDM2-R3 pool. (a) Pattern enrichment score calculation. For both sequence data (FASTQ), the abundance of each position–amino acid pattern was determined. Enrichment values were calculated as the ratio of abundance in the selected sample to that in the control sample. (b) Venn diagram showing pattern coverage (white, whole space of three-window patterns; blue, patterns found in Amp-R3 dataset; red, patterns found in HDM2-R3 dataset). (c) Scattering plot indicating the abundance of control (x-axis) and HDM2-R3 selected sample (y-axis). Red circles are patterns with log2(ratio) values greater than 8. (d) Position–amino acid patterns ranked in the top 20. (e) WebLogo depicting enriched sequences determined from enriched patterns with log2(ratio) values greater than 8. (f) Sequences and helical wheel diagrams of HDM2-p13 and HDM2-opt peptides. Highly enriched residues are coloured red. (g) Fluorescence polarisation assay for competitive inhibition. Peptides (50 nM to 50 μM) were mixed with 100 nM HDM2 and 10 nM FAM-ATSP-3848. […] Error bar represents SD (n = 3).
Competition binding assay
The peptides (50 nM–50 µM) was mixed with 100 nM of HDM2 and 10 nM of FAM-AT P S-3848 in HBS buffer (10 mM HEPES, 150 mM NaCl, pH 7.5). The fluorescence polarization was measured by ARVO MX plate […]
values of peptide inhibitors were calculated by nonlinear regression analysis using Prism (GraphPad Software).
Pull-down competition binding assay
Recombinant SARS-CoV-2 Spike RBD His Biotin Protein (R&D Systems, BT10500) at 4 µg/mL concentration in HBS buffer was incubated with 3 mg/mL of DynaBeads M-280 (ThermoFisher) for 2 hours at 4 °C. […]
After one hour incubation at room temperature, the beads were rinsed three times with HBS-T ( 2 0 0 µL/well). […] The chemiluminescent bands were detected using LuminoGraphI (ATTO) with ImageSaver6 software. From the band intensities, IC50 values of peptide inhibitors were calculated by nonlinear regression analysis using Prism (GraphPad Software).

Data set [2] is described as follows: CD measurement of helical content. Type of data set: physicochemical.
For data set [3], the target named is interaction between SARS-CoV-2 spike RBD and ACE2 (Severe acute respiratory syndrome coronavirus 2, UniProt P0DTC2). Nature of the data set: biochemical. Type of data set: binding. The settings on record: n = 3.

Each structure is given as a SMILES string. Numbered stars: 1 amine (or outer) side, 2 acyl side, 3 side chain; on linkers, the order of the positions; unused ones are H or OH. Bridge positions count the residues as written; N and C are the ends. Peptide text beside a SMILES is read from it. X1 = O=C(C[*:1])NCCCCCNC(=O)C[*:2]

The source of these data is PMC9645375, “Pattern enrichment analysis for phage selection of stapled peptide ligands” (Chemical Science, 2022).

T1 sequence (Q00987 whole entry): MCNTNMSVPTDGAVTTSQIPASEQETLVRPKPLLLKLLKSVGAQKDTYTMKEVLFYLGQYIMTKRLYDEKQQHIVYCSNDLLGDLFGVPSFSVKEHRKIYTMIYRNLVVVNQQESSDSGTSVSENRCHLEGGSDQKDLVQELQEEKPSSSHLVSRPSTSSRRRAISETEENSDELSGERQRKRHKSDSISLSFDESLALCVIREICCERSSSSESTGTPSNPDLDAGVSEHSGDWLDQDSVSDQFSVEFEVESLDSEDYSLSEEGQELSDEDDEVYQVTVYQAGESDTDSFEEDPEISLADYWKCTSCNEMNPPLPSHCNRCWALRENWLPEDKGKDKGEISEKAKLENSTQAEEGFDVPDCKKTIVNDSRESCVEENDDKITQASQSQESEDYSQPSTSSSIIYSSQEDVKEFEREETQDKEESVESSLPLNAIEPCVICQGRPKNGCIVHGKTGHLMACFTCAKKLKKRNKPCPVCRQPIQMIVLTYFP

Take `CC(C)C[C@H](NC(=O)[C@@H]1CSCC(=O)NCCCCCNC(=O)CSC[C@H](NC(=O)[C@@H]2CCCN2)C(=O)N[C@@H](Cc2ccccc2)C(=O)N[C@@H](Cc2ccc(O)cc2)C(=O)N[C@@H](CC(=O)O)C(=O)N[C@@H](Cc2ccc(O)cc2)C(=O)N[C@@H](Cc2c[nH]c3ccccc23)C(=O)N[C@@H](CCC(N)=O)C(=O)N1)C(N)=O` [HDM2-opt] (H-PCFYDYWQCL-NH2; linker 2-9 via X1): in data set [1], the “inhibition of FAM-ATSP-3848 binding to HDM2 (in words)” value is listed as “exhibited effective inhibition”.

Consider `CC(C)C[C@@H]1NC(=O)[C@H](Cc2ccc(O)cc2)NC(=O)[C@H](CC(=O)O)NC(=O)[C@H](Cc2ccccc2)NC(=O)CNC(=O)[C@H](Cc2c[nH]c3ccccc23)NC(=O)[C@@H](NC(=O)[C@@H](N)[C@@H](C)O)CSCC(=O)NCCCCCNC(=O)CSC[C@@H](C(=O)N[C@@H](Cc2c[nH]c3ccccc23)C(N)=O)NC1=O` [CoV-2-p5] (H-TCWGFDYLCW-NH2; linker 2-9 via X1), for which the helical content in data set [2] (pH 7.5) was 12%. Besides, the midpoint of inhibition in data set [3], the IC50, lay at 3.8 ± 3.3 µM.

Consider `CC(C)C[C@H](NC(=O)[C@@H]1CSCC(=O)NCCCCCNC(=O)CSC[C@H](NC(=O)[C@H](C)N)C(=O)N[C@@H](Cc2ccccc2)C(=O)N[C@@H](CC(=O)O)C(=O)N[C@@H](CCC(=O)O)C(=O)N[C@@H](Cc2ccc(O)cc2)C(=O)N[C@@H](Cc2c[nH]c3ccccc23)C(=O)N[C@@H](CCC(N)=O)C(=O)N1)C(N)=O` [HDM2-p13] (H-ACFDEYWQCL-NH2; linker 2-9 via X1), for which the IC50 in data set [1] (competitive inhibition FP, peptides 50 nM to 50 μM, 100 nM HDM2, 10 nM FAM-ATSP-3848, HBS buffer (10 mM HEPES, 150 mM NaCl, pH 7.5), SD, n = 3) came to 4.8 ± 0.6 µM. Also, the “inhibition of FAM-ATSP-3848 binding to HDM2 (in words)” value in data set [1] is reported as “inhibited the high-affinity binding”. For the same compound, the helical content in data set [2] (CD, 25% TFE, 30 µM peptide, HBS buffer (10 mM HEPES, 150 mM NaCl, pH 7.5), calculated by BeStSel web server) was 43%.

Consider `CC(C)C[C@@H]1NC(=O)[C@@H](NC(=O)[C@@H](N)[C@@H](C)O)CSCC(=O)NCCCCCNC(=O)CSC[C@@H](C(=O)N[C@@H](Cc2ccccc2)C(N)=O)NC(=O)[C@H](CCC(=O)O)NC(=O)[C@H](Cc2ccccc2)NC(=O)[C@H](Cc2c[nH]c3ccccc23)NC(=O)[C@H](CO)NC(=O)[C@H](CO)NC1=O` [CoV-2-p2] (H-TCLSSWFECF-NH2; linker 2-9 via X1), for which the “conformational preference (in words)” value in data set [2] was “prefer a helical conformation”. The helical content in data set [2] (pH 7.5) was determined as 45%. This compound showed an IC50 in data set [3] of 12.9 ± 4.9 µM.
